In patent USRE39591E1, “6-O-substituted ketolides having antibacterial activity” (Abbott Laboratories, priority 1996, dated 2007):
Values after ≈ are worked out from the molar mass of the structure shown.

System: up to 32 different microorganisms
Test: in vitro antibacterial activity (MIC), agar dilution on Brain Heart Infusion (BHI) agar with Steers replicator
Type: cell-based
Details: unit assumed
Procedure, shortened: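 Erythromycin A served as the same-class reference for test-to-test comparability. Test compound was tested over twelve successive dilutions in BHI agar; plates were incubated 20 to 24 hours at 35°-37° C, with MIC taken as the lowest concentration showing no growth, slight haze, or sparse colonies.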

[1] = Candida albicans CCH 442 (code TT)
[2] = Enterococcus faecism ATCC 8043 (code II)
[3] = Escherichia coli DC-2 (code SS)
[4] = Escherichia coli JUHL (code QQ)
[5] = Haemophilis influenzae DILL AMP R (code WW)
[6] = Micrococcus luteus ATCC 4698 (code PP)
[7] = Micrococcus luteus ATCC 9341 (code OO)
[8] = Mycobacterium smegmatis ATCC 114 (code UU)
[9] = Nocardia Asteroides ATCC9970 (code VV)
[10] = Staphylococcus aureus 1775 (code GG)
[11] = Staphylococcus aureus A5177 (code BB)
[12] = Staphylococcus aureus A-5278 (code CC)
[13] = Staphylococcus aureus ATCC 6538P (code AA)
[14] = Staphylococcus aureus CMX 553 (code FF)
[15] = Staphylococcus aureus CMX 642A (code DD)
[16] = Staphylococcus aureus NCTC10649M (code EE)
[17] = Staphylococcus epidermidis 3519 (code HH)
[18] = Streptococcus Pneumonia 5649 (code ZZA)
[19] = Streptococcus Pneumonia 5979 (code ZZ)
[20] = Streptococcus Pneumonia ATCC6303 (code XX)
[21] = Streptococcus Pneumonia GYR 1171 (code YY)
[22] = Streptococcus agalactiae CMX 508 (code KK)
[23] = Streptococcus bovis A-5169 (code JJ)
[24] = Streptococcus pyogenes 930 (code MM)
[25] = Streptococcus pyogenes EES61 (code LL)
[26] = Streptococcus pyogenes PIU 2548 (code NN)

CCC1OC(=O)C(C)C(=O)C(C)C(OC2OC(C)CC(N(C)C)C2O)C(C)(OCC=Cc2ccc3nccnc3c2)CC(C)C(=O)C(C)C2NC(=O)OC12C (centres unmarked) [Example 207, R is —CH2CH═CH-(6-quinoxalinyl)]
MIC (organism code AA): 0.1 mg/L (≈ 0.13 µM)
MIC (organism code BB): 0.1 mg/L (≈ 0.13 µM)
MIC (organism code CC): > 100 mg/L
MIC (organism code DD): 0.1 mg/L (≈ 0.13 µM)
MIC (organism code EE): 0.1 mg/L (≈ 0.13 µM)
MIC (organism code FF): 0.1 mg/L (≈ 0.13 µM)
MIC (organism code GG): > 100 mg/L
MIC (organism code HH): 0.1 mg/L (≈ 0.13 µM)
MIC (organism code II): 0.02 mg/L (≈ 0.0261 µM)
MIC (organism code JJ): ≤ 0.005 mg/L
MIC (organism code KK): ≤ 0.005 mg/L
MIC (organism code LL): 0.01 mg/L (≈ 0.013 µM)
MIC (organism code MM): 1.56 mg/L (≈ 2.03 µM)
MIC (organism code NN): 0.2 mg/L (≈ 0.261 µM)
MIC (organism code OO): 0.01 mg/L (≈ 0.013 µM)
MIC (organism code PP): 0.1 mg/L (≈ 0.13 µM)
MIC (organism code QQ): 25 mg/L (≈ 32.6 µM)
MIC (organism code RR): 0.2 mg/L (≈ 0.261 µM)
MIC (organism code SS): 50 mg/L (≈ 65.2 µM)
MIC (organism code TT): > 100 mg/L
MIC (organism code UU): 0.39 mg/L (≈ 0.509 µM)
MIC (organism code VV): 0.02 mg/L (≈ 0.0261 µM)
MIC (organism code WW): 2 mg/L (≈ 2.61 µM)
MIC (organism code XX): 0.015 mg/L (≈ 0.0196 µM)
MIC (organism code YY): 0.015 mg/L (≈ 0.0196 µM)
MIC (organism code ZZ): 64 mg/L (≈ 83.4 µM)
MIC (organism code ZZA): 0.5 mg/L (≈ 0.652 µM)

CCC1OC(=O)C(C)C(=O)C(C)C(OC2OC(C)CC(N(C)C)C2O)C(C)(OCC=Cc2cnc3cccc([N+](=O)[O-])c3c2)CC(C)C(=O)C(C)C2NC(=O)OC12C (centres unmarked) [Example 210, R is —CH2CH═CH-(5-nitro-3-quinolyl)]
MIC (organism code AA): 0.1 mg/L (≈ 0.123 µM)
MIC (organism code CC): > 100 mg/L
MIC (organism code DD): 0.1 mg/L (≈ 0.123 µM)
MIC (organism code EE): 0.1 mg/L (≈ 0.123 µM)
MIC (organism code FF): 0.1 mg/L (≈ 0.123 µM)
MIC (organism code GG): > 100 mg/L
MIC (organism code HH): 0.1 mg/L (≈ 0.123 µM)
MIC (organism code II): 0.02 mg/L (≈ 0.0247 µM)
MIC (organism code JJ): ≤ 0.005 mg/L
MIC (organism code KK): ≤ 0.005 mg/L
MIC (organism code LL): 0.01 mg/L (≈ 0.0123 µM)
MIC (organism code MM): 0.78 mg/L (≈ 0.962 µM)
MIC (organism code NN): 0.2 mg/L (≈ 0.247 µM)
MIC (organism code OO): 0.02 mg/L (≈ 0.0247 µM)
MIC (organism code PP): 0.2 mg/L (≈ 0.247 µM)
MIC (organism code QQ): 50 mg/L (≈ 61.7 µM)
MIC (organism code RR): 0.2 mg/L (≈ 0.247 µM)
MIC (organism code SS): > 100 mg/L
MIC (organism code TT): > 100 mg/L
MIC (organism code UU): 0.78 mg/L (≈ 0.962 µM)
MIC (organism code VV): 0.02 mg/L (≈ 0.0247 µM)
MIC (organism code WW): 3 mg/L (≈ 3.7 µM)
MIC (organism code XX): 0.015 mg/L (≈ 0.0185 µM)
MIC (organism code YY): ≤ 0.004 mg/L
MIC (organism code ZZ): 4 mg/L (≈ 4.93 µM)
MIC (organism code ZZA): 0.25 mg/L (≈ 0.308 µM)

CCC1OC(=O)C(C)C(=O)C(C)C(OC2OC(C)CC(N(C)C)C2O)C(C)(OCC=Cc2cccc3cccnc23)CC(C)C(=O)C(C)C2NC(=O)OC12C (centres unmarked) [Example 189, R is —CH2CH-(8-quinolyl)]
MIC [1]: > 100 mg/L
MIC [2]: 0.05 mg/L (≈ 0.0653 µM)
MIC [3]: 50 mg/L (≈ 65.3 µM)
MIC [4]: 100 mg/L (≈ 131 µM)
MIC (Escherichia coli SS (code RR)): 0.39 mg/L (≈ 0.509 µM)
MIC [5]: 8 mg/L (≈ 10.4 µM)
MIC [6]: 0.1 mg/L (≈ 0.131 µM)
MIC [7]: 0.02 mg/L (≈ 0.0261 µM)
MIC [8]: 0.78 mg/L (≈ 1.02 µM)
MIC [9]: 0.05 mg/L (≈ 0.0653 µM)
MIC [10]: > 100 mg/L
MIC [11]: 0.1 mg/L (≈ 0.131 µM)
MIC [12]: > 100 mg/L
MIC [13]: 0.2 mg/L (≈ 0.261 µM)
MIC [14]: 0.1 mg/L (≈ 0.131 µM)
MIC [15]: 0.2 mg/L (≈ 0.261 µM)
MIC [16]: 0.1 mg/L (≈ 0.131 µM)
MIC [17]: 0.2 mg/L (≈ 0.261 µM)
MIC [18]: 0.5 mg/L (≈ 0.653 µM)
MIC [19]: > 32 mg/L
MIC [20]: 0.125 mg/L (≈ 0.163 µM)
MIC [21]: 0.06 mg/L (≈ 0.0783 µM)
MIC [22]: ≤ 0.005 mg/L
MIC [23]: ≤ 0.005 mg/L
MIC [24]: 50 mg/L (≈ 65.3 µM)
MIC [25]: ≤ 0.005 mg/L
MIC [26]: 0.2 mg/L (≈ 0.261 µM)

CC[C@H]1OC(=O)[C@H](C)C(=O)[C@H](C)[C@@H](O[C@@H]2O[C@H](C)C[C@H](N(C)C)[C@H]2O)[C@@](C)(OCC=Cc2cnc3ccccc3c2)C[C@@H](C)C(=O)[C@H](C)[C@H]2N(C)C(=O)O[C@]12C [Example 180, Compound of Formula (IX): L is CO, T is N(CH3), R is —CH2CH═CH-(3-quinolyl)]
MIC [1]: > 100 mg/L
MIC [2]: 0.05 mg/L
MIC [3]: > 100 mg/L
MIC [4]: > 100 mg/L
MIC (Escherichia coli SS (code RR)): 0.2 mg/L
MIC [5]: 4 mg/L
MIC [6]: 0.1 mg/L
MIC [7]: 0.02 mg/L
MIC [8]: 0.2 mg/L
MIC [9]: 0.1 mg/L
MIC [10]: > 100 mg/L
MIC [11]: 0.1 mg/L
MIC [12]: > 100 mg/L
MIC [13]: 0.1 mg/L
MIC [14]: 0.1 mg/L
MIC [15]: 0.1 mg/L
MIC [16]: 0.1 mg/L
MIC [17]: 0.1 mg/L
MIC [18]: 0.25 mg/L
MIC [19]: 128 mg/L
MIC [20]: 0.03 mg/L
MIC [21]: 0.03 mg/L
MIC [22]: 0.05 mg/L
MIC [23]: 0.02 mg/L
MIC [24]: 25 mg/L
MIC [25]: 0.02 mg/L
MIC [26]: 0.2 mg/L
